Laboratory results from paper PMC7699649 (Communications Biology, 2020).
Non-standard residues stand in square brackets, D forms with d. Residues, ends and D or L forms follow the SMILES beside them.

Tests used:
A549 = format: cell-based; details: 24 h
Experimental: (§1) HeLa and HEK293 cell lines were purchased from ECACC and cultured in Eagle’s Minimum Essential Media containing glutamine, supplemented with 10% FBS and 1X non-essential amino acids. A549 and Calu-3 cell lines were purchased from ATCC. […] Cytotoxicity was measured by incubating starter cultures of cells for 24 h in a 96 well plate, gently removing the supernatant and replacing it with dilutions of peptides and controls, incubating for a further 24 h and then staining of the cells with the second-generation tetrazolium dye, XTT.

HeLa = format: cell-based; details: 24 h
Experimental: as §1

Calu-3 = format: cell-based; details: 24 h
Experimental: as §1

EMRSA-15 = assay: 1H HR-MAS NMR metabolomics of bacterial pellets; format: cell-based, Staphylococcus aureus; details: EMRSA-15 in MHB, sub-inhibitory challenge v unchallenged; fold change, 1H HR-MAS NMR of pellets
Experimental: S. aureus EMRSA-15 and P. aeruginosa RP73 were streaked on Mueller Hinton agar plates and RPMI (supplemented with 5% FBS) agar plates and incubated at 37 °C overnight or until single colonies formed. […] Cultures were incubated overnight at 37 °C without shaking and pelleted by centrifugation at 4 °C. The supernatant was removed and filtered separately for spent media analysis, the pellet was briefly washed three times with phosphate buffered saline (PBS). The pellets were frozen in liquid nitrogen and lyophilised overnight in an Alpha 1–2 LD plus freeze dryer (Martin Christ, Germany) and stored at −20 °C until required. Samples were transferred into HR-MAS inserts for use in 4 mm Bruker MAS rotor and resuspended in 30 μl of D2O containing 3-(Trimethylsilyl)propionic-2,2,3,3-D4 acid sodium salt (TMSP-2,2,3,3-D4). The removed supernatant was filtered through 0.2 μm filters and pH adjusted to within 0.3 pH units within the same sample set. The samples were supplemented with 10% D2O containing TMSP-2,2,3,3-D4 and loaded into 5.0 mm NMR tubes.
NMR spectra were collected at 600 MHz for ^1H on a Bruker Avance II spectrometer (Bruker Biospin, Coventry, UK) with a 4 mm HR-MAS probe at 310 K while spinning at 5 kHz. ^1H NMR spectra were acquired using a Carr-Purcell Meiboom-Gill pre-saturation (cpmgpr1d) pulse sequence with a spectrum width of 16.0 ppm and 9615 data points using 64 transients. Free induction decay was multiplied by an exponential function with 0.293 Hz line broadening. 2D ^1H–^1H correlation spectroscopy (COSY) and ^1H–^13C Heteronuclear Single Quantum Correlation (HSQC) experiments were performed on representative datasets using standard Bruker settings.
The spectra were Fourier transformed automatically using standard Bruker commands and manually phased and baseline corrected in Bruker TopSpin 4.0 (Bruker Biospin, Coventry, UK). Spectral pre-processing, cross-validation and multivariate analysis were carried out using the in-house programme developed by Dr Louic Vermeer and MVAPACK, an opensource Octave library for NMR metabolomic data processing and analysis. Pre-processing modifies NMR spectra and reduces the variances and influences which are not of interest and may interfere with data analysis, for example, residual water peak or noise and the TSP reference peak. Initially a principle component analysis was carried out to identify clustering spectra and potential outliers in the data, due to e.g. poor baseline. Data were then subject to probabilistic quotient normalisation before binning and alignment. Orthogonal Projections to Latent Structures Discriminant Analysis analyses were conducted to establish the quality of binary comparisons of the metabolomic data (Supplementary Table 4). […] The Mann–Whitney U test was used to compare means and associated p values were false discovery rate adjusted using the Benjamini-Hochberg method (α = 0.05). Box plots were generated using changes in normalised intensity for each metabolite and significant differences between challenges and controls were determined using a one-way ANOVA. Volcano plots and box plots were generated using in-house software developed for Jupyter Notepad using Python 3.7.0. Metabolites were assigned using the databanks: Chenomx NMR suite software (Chenomx Inc., Canada), Human Metabolome Database, BMRB, E. coli Metabolome Database and AOCS lipid library; and a comparison of chemical shifts to the literature, which was confirmed using 2D NMR spectra. Annotated spectra can be found in the supplementary materials (Supplementary Fig. 15). Metaboanalyst and KEGG were later used to identify key pathways that may be affected by these metabolites.

human red blood cells = assay: Haemolysis assay; format: cell-based; details: human red blood cells in PBS, 1 h 37 °C, OD550, relative to 0.1% Triton-X-100
Experimental: Haemolysis was tested by incubating titrations of AMPs in PBS with freshly collected human red blood cells for 1 h at 37 °C. Control wells were treated with 0.1% Triton-X-100 to ensure complete lysis, or PBS-only to represent no lysis. Samples were spun down to remove non-lysed cells and the OD550 of the supernatant was measured using a Clariostar plate reader. The percentage of haemolysis was calculated as % haemolysis = (AP − AB)/(AC − AB) × 100, where AP is the absorbance value for a known peptide concentration, AC is the absorbance of the 0.1% Triton-X-100 control, AB is the absorbance of the PBS control. Data presented are averages and standard error from three biological replicate experiments.

HEK293 = format: cell-based, human; details: 24 h
Experimental: as §1

IL-6 = assay: Murine EMRSA-15 lung infection model: BAL cytokine ELISA; format: in vivo, C57Bl6J mice; details: 600 mg/kg vancomycin or D-pleurocidin-KR (also lowest dose 0.15 mg/kg) i.v., 48 h
S. aureus USA300 = details: 200 mg/kg vancomycin i.p.; cited from earlier work
[1] = Murine EMRSA-15 lung infection model: body weight; format: in vivo, C57Bl6J mice; details: cumulative 15 or 1.5 mg/kg/48 h D-pleurocidin-KR; 600 mg/kg vancomycin; i.v.
TNFα = assay: Murine EMRSA-15 lung infection model: BAL cytokine ELISA; format: in vivo, C57Bl6J mice; details: vancomycin or D-pleurocidin-KR i.v., 48 h
BAL cells = assay: Murine EMRSA-15 lung infection model: BAL total and differential cell count; format: in vivo, C57Bl6J mice; details: 48 h
Experimental: Using the recently developed method[65], an overnight culture of EMRSA-15 was prepared in tryptic soy broth (TSB). EMRSA-15 was cultured in TSB overnight at 37 °C, adjusted to a starting OD600 of 0.025, and grown for additional 4 h for agar beads preparation. EMRSA-15 was embedded into agar beads by mixing the overnight culture with molten tryptic soy agar, which was then spun into warmed mineral oil. The preparation was cooled and centrifuged at 2700 × g, the remaining oil was eliminated, and the beads were washed in sterile PBS. The CFU content of the beads slurry was subsequently quantified on TSA plates and the beads slurry then diluted to 2 × 10^7 CFU/ml in sterile PBS to deliver a final dose of 1 × 10^6 CFU/mouse. Animal work was performed in accordance with the Animals (Scientific Procedures) Act of 1986 (United Kingdom) and 2012 revisions with local ethical approval of King’s College London. On day 0, male C57Bl6J mice (8–10 weeks, Charles River) were anaesthetised under Isoflurane and 50 µl inoculum of EMRSA-15 embedded in agar beads (10^6 CFU/mouse) was instilled directly into the respiratory tract via oropharyngeal dosing (o.a.). Sham control mice were inoculated with sterile PBS agar beads. […] Body weight was measured daily, and animals monitored at regular intervals for signs of pain and distress. After 48 h of pulmonary infection, animals were terminally euthanized using 25% urethane via intra-peritoneal injection. CFUs were quantified in lung homogenates. Lung homogenates were then centrifuged at 14000 rpm for 30 min at 4 °C and the supernatants were stored at −80 °C for future analysis. For BAL fluid collection and analysis (total and differential cell count), a 22-gauge catheter was inserted into the trachea and BAL was recovered by instillation of 0.5 ml of sterile PBS three times and total cells counts were performed by adding Turks stain in a 1:1 ratio. BAL fluid was then centrifuged, and supernatants were stored at −20 °C. Total levels of TNFα, IL-6, KC and MCP-1 were quantified from BAL fluid collected from all animals and measured by ELISA according to the manufacturer protocol (R&D Systems UK). Concentrations of all mediators were then normalised to total protein content of BAL fluid quantified via bicinchoninic acid total protein assays performed to manufacturers protocols (Thermofisher Scientific). […] Statistical analysis was by one-way ANOVA with Dunnett’s multiple comparisons test.

MCP-1 = assay: Murine EMRSA-15 lung infection model: BAL cytokine ELISA; format: in vivo, C57Bl6J mice; details: vancomycin or D-pleurocidin-KR i.v., 48 h
KC = assay: as above; format: in vivo, C57Bl6J mice; details: 600 mg/kg vancomycin or the two higher D-pleurocidin-KR doses (15, 1.5 mg/kg) i.v., 48 h

CC(C)C[C@@H](NC(=O)[C@@H](Cc1ccc(O)cc1)NC(=O)[C@@H](Cc1c[nH]cn1)NC(=O)[C@H](NC(=O)[C@@H](CC(C)C)NC(=O)[C@@H](C)NC(=O)[C@@H](C)NC(=O)[C@@H](CCCCN)NC(=O)CNC(=O)[C@@H](C)NC(=O)[C@@H](Cc1c[nH]cn1)NC(=O)[C@@H](CCCCN)NC(=O)CNC(=O)[C@@H](C)NC(=O)[C@@H](Cc1c[nH]cn1)NC(=O)[C@@H](C)NC(=O)[C@@H](C)NC(=O)[C@@H](CCCCN)NC(=O)[C@@H](CCCCN)NC(=O)[C@@H](Cc1ccccc1)NC(=O)[C@@H](Cc1ccccc1)NC(=O)[C@@H](CO)NC(=O)CNC(=O)[C@@H](Cc1c[nH]c2ccccc12)NC(=O)CN)[C@H](C)O)C(N)=O [D-pleurocidin-VA] (H-G[dW]G[dS][dF][dF][dK][dK][dA][dA][dH][dA]G[dK][dH][dA]G[dK][dA][dA][dL][dT][dH][dY][dL]-NH2; N-terminus assumed)
Toxicity A549 (EC50 / IC50) (A549): (>250) µg/ml
Toxicity HeLa (EC50 / IC50) (HeLa): (198.2 ± 10.2) µg/ml
Toxicity Calu-3 (EC50 / IC50) (Calu-3): (>250) µg/ml
fc 2-aminobutyrate (EMRSA-15): 0.991
fc Acetate (EMRSA-15): 1.149
fc Acetyl-Phosphocholine (1) (EMRSA-15): 0.9923
fc Acetyl-Phosphocholine (2) (EMRSA-15): 1.003
fc Adenosine (EMRSA-15): 1.125
fc Alanine (EMRSA-15): 0.9478
fc Aspartate (EMRSA-15): 0.8483
fc Betaine (EMRSA-15): 0.9779
fc Choline (EMRSA-15): 1.051
fc Citrulline (EMRSA-15): 0.9363
fc Glutamate (EMRSA-15): 0.896
fc Glycerol (lipid headgroup) (1) (EMRSA-15): 0.9028
fc Glycerol (lipid headgroup) (2) (EMRSA-15): 1.031
fc Glycerol (lipid headgroup) (3) (EMRSA-15): 0.9777
fc Isoleucine (EMRSA-15): 1.148
fc Lactate (EMRSA-15): 1.293
fc Leucine (EMRSA-15): 1.172
fc Lipid -CH=CH- (EMRSA-15): 1.134
fc Lipid-CH₃ (EMRSA-15): 1.116
fc Lysine (EMRSA-15): 1.027
fc N-acetyl-x (1) (EMRSA-15): 0.8941
fc N-acetyl-x (2) (EMRSA-15): 1.036
fc N-acetyl-x (3) (EMRSA-15): 0.9489
fc Proline (EMRSA-15): 1.056
fc Succinate (EMRSA-15): 0.8785
fc Unassigned 1.47ppm (EMRSA-15): 0.8868
fc Unassigned 3.4802ppm (EMRSA-15): 0.9293
fc Unassigned 8.55ppm (EMRSA-15): 0.9285
fc Uracil (EMRSA-15): 1.738
fc Valine (EMRSA-15): 1.029
fc ᴅ-alanine (LTA) (EMRSA-15): 1.157
haemolysis at the highest concentration tested 400 µg/ml (human red blood cells): Neither pleurocidin-VA nor D-pleurocidin-VA induce detectable haemolysis
Toxicity HEK293 (EC50 / IC50) (HEK293): (217.3 ± 46.5) µg/ml

CC(C)C[C@@H](NC(=O)[C@@H](Cc1ccc(O)cc1)NC(=O)[C@@H](Cc1c[nH]cn1)NC(=O)[C@H](NC(=O)[C@@H](CC(C)C)NC(=O)[C@@H](C)NC(=O)[C@@H](C)NC(=O)[C@@H](CCCCN)NC(=O)CNC(=O)[C@H](NC(=O)[C@@H](Cc1c[nH]cn1)NC(=O)[C@@H](CCCCN)NC(=O)CNC(=O)[C@H](NC(=O)[C@@H](Cc1c[nH]cn1)NC(=O)[C@@H](C)NC(=O)[C@@H](C)NC(=O)[C@@H](CCCCN)NC(=O)[C@@H](CCCCN)NC(=O)[C@@H](Cc1ccccc1)NC(=O)[C@@H](Cc1ccccc1)NC(=O)[C@@H](CO)NC(=O)CNC(=O)[C@@H](Cc1c[nH]c2ccccc12)NC(=O)CN)C(C)C)C(C)C)[C@H](C)O)C(N)=O [D-pleurocidin] (H-G[dW]G[dS][dF][dF][dK][dK][dA][dA][dH][dV]G[dK][dH][dV]G[dK][dA][dA][dL][dT][dH][dY][dL]-NH2; N-terminus assumed)
Toxicity A549 (EC50 / IC50) (A549): (79.3 ± 7.2) µg/ml
Toxicity HeLa (EC50 / IC50) (HeLa): (47.1 ± 2.1) µg/ml
Toxicity Calu-3 (EC50 / IC50) (Calu-3): (41.9 ± 1.8) µg/ml
fc 2-aminobutyrate (EMRSA-15): 1.089
fc Acetate (EMRSA-15): 7.742
fc Acetyl-Phosphocholine (1) (EMRSA-15): 0.8504
fc Acetyl-Phosphocholine (2) (EMRSA-15): 0.9675
fc Adenosine (EMRSA-15): 0.737
fc Alanine (EMRSA-15): 0.9988
fc Aspartate (EMRSA-15): 0.9699
fc Betaine (EMRSA-15): 1.128
fc Choline (EMRSA-15): 0.8079
fc Citrulline (EMRSA-15): 0.7893
fc Glutamate (EMRSA-15): 0.9017
fc Glycerol (lipid headgroup) (1) (EMRSA-15): 1.108
fc Glycerol (lipid headgroup) (2) (EMRSA-15): 0.9648
fc Glycerol (lipid headgroup) (3) (EMRSA-15): 0.9439
fc Isoleucine (EMRSA-15): 0.8635
fc Lactate (EMRSA-15): 0.8326
fc Leucine (EMRSA-15): 0.8297
fc Lipid -CH=CH- (EMRSA-15): 1.03
fc Lipid-CH₃ (EMRSA-15): 0.9623
fc Lysine (EMRSA-15): 0.8706
fc N-acetyl-x (1) (EMRSA-15): 1.103
fc N-acetyl-x (2) (EMRSA-15): 1.06
fc N-acetyl-x (3) (EMRSA-15): 0.8909
fc Proline (EMRSA-15): 0.991
fc Succinate (EMRSA-15): 0.6241
fc Unassigned 1.47ppm (EMRSA-15): 0.9642
fc Unassigned 3.4802ppm (EMRSA-15): 1.011
fc Unassigned 8.55ppm (EMRSA-15): 5.383
fc Uracil (EMRSA-15): 0.4342
fc Valine (EMRSA-15): 0.8108
fc ᴅ-alanine (LTA) (EMRSA-15): 1.199
concentration at which 10% haemolysis is achieved (human red blood cells; three biological replicates): 240 µg/mL
Toxicity HEK293 (EC50 / IC50) (HEK293): (61.4 ± 3.9) µg/ml

CN[C@H](CC(C)C)C(=O)N[C@H]1C(=O)N[C@@H](CC(N)=O)C(=O)N[C@H]2C(=O)N[C@H]3C(=O)N[C@H](C(=O)N[C@H](C(=O)O)c4cc(O)cc(O)c4-c4cc3ccc4O)[C@H](O)c3ccc(c(Cl)c3)Oc3cc2cc(c3O[C@@H]2O[C@H](CO)[C@@H](O)[C@H](O)[C@H]2O[C@H]2C[C@](C)(N)[C@H](O)[C@H](C)O2)Oc2ccc(cc2Cl)[C@H]1O [vancomycin, reference compound]
IL-6 in BAL (IL-6): reduced
reduction in S. aureus USA300 CFU (S. aureus USA300): comparable reduction
weight loss over the 48-h infection period [1]: mitigates this weight loss
levels of TNFα in BAL (TNFα): No effects
neutrophil recruitment (BAL) (BAL cells; 600 mg/kg vancomycin or D-pleurocidin-KR (also lowest dose 0.15 mg/kg) i.v.): reduced
macrophage numbers in BAL (BAL cells; vancomycin or D-pleurocidin-KR i.v.): No effects
levels of MCP-1 in BAL (MCP-1): No effects
KC levels in BAL (KC): fall to that of the uninfected group
